According to ChEMBL document CHEMBL5550160, “Leveraging a rationally designed veliparib-based anilide eliciting anti-leukemic effects for the design of pH-responsive polymer nanoformulation” (Eur J Med Chem, 2024):
pIC50: −log10 of the molar value. Active and inactive are the calls of the source. The rule behind the calls is not given here.

Experiments:
Histone deacetylase 2 = Histone deacetylase 2 (Homo sapiens, UniProt Q92769); assay: Inhibition of HDAC2 (unknown origin) assessed as residual activity at 4.57 x 10^-9M (reference value: 99.81%); settings: dose 4.57 10^-9M
[1] = molecular target: T1, Polyamine deacetylase HDAC10 (Homo sapiens) (UniProt Q969S8); assay: Inhibition of HDAC10 (unknown origin) assessed as residual activity at 4.57 x 10^-9M (reference value: 101.54%); settings: dose 4.57 10^-9M
T1 sequence (whole entry): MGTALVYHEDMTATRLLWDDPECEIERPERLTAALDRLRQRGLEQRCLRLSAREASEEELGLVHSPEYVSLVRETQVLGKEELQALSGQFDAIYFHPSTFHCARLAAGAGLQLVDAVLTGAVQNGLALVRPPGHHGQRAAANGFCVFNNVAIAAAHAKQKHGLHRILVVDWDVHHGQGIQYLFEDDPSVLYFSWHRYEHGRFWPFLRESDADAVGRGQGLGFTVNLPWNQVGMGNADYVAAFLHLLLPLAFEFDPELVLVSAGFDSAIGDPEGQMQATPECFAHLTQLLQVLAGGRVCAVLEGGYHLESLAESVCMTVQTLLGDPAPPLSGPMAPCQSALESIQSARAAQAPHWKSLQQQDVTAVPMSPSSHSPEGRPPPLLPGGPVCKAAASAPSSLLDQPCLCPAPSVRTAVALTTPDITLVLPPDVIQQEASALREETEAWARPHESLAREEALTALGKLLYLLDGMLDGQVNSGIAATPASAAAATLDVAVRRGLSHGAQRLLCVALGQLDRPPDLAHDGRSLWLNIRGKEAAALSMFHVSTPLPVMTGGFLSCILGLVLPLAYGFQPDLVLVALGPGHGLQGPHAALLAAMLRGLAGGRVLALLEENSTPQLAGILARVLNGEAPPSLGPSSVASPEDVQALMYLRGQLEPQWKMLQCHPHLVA

HL-60 [2] = assay: Downregulation of HDAC3 protein expression in human HL-60 cells at 0.5 to 1 times IC50 by Western blot analysis; format: functional, cell-based
[3] = molecular target: Histone deacetylase 5 (Homo sapiens) (UniProt Q9UQL6); assay: Inhibition of HDAC5 (unknown origin) assessed as residual activity at 1.23 x 10^-7M (reference value: 100%); settings: dose 1.23 10^-7M
[4] = molecular target: Histone deacetylase 5 (Homo sapiens) (UniProt Q9UQL6); assay: Inhibition of HDAC5 (unknown origin) assessed as residual activity at 4.57 x 10^-9M (reference value: 100%); settings: dose 4.57 10^-9M
K562 = assay: cells; settings: Homo sapiens
Description: Antiproliferative activity against human K562 cells assessed as inhibition of cell growth by MTT assay

Histone deacetylase 1 [5] = molecular target: T2, Histone deacetylase 1 (Homo sapiens, UniProt Q13547); assay: Inhibition of HDAC1 (unknown origin) using p53 residues 379 to 382 [RHKK(Ac)] as fluorogenic substrate assessed as residual activity at 1.23 x 10^-7M (reference value: 98.06%); settings: dose 1.23 10^-7M
[6] = molecular target: Histone deacetylase 5 (Homo sapiens) (UniProt Q9UQL6); assay: Inhibition of HDAC5 (unknown origin) assessed as residual activity at 1.37 x 10^-8M (reference value: 100%); settings: dose 1.37 10^-8M
HL-60 [7] = assay: Downregulation of HDAC3 protein expression in human HL-60 cells by Western blot analysis; format: functional, cell-based; settings: dose 0.2-5 µM
Histone deacetylase 3 [8] = molecular target: T3, Histone deacetylase 3 (Homo sapiens, UniProt O15379); assay: Inhibition of HDAC3 (unknown origin) using p53 residues 379 to 382 [RHKK(Ac)] as fluorogenic substrate assessed as residual activity at 1.37 x 10^-8M (reference value: 103.08%); settings: dose 1.37 10^-8M
Histone deacetylase 3 [9] = molecular target: T3, Histone deacetylase 3; assay: Inhibition of HDAC3 (unknown origin) using p53 residues 379 to 382 [RHKK(Ac)] as fluorogenic substrate assessed as residual activity at 5.08 x 10^-10M (reference value: 103.08%); settings: dose 5.08 10^-10M
[10] = molecular target: T4, Protein deacetylase HDAC6 (Homo sapiens) (UniProt Q9UBN7); assay: Inhibition of HDAC6 (unknown origin) using p53 residues 379 to 382 [RHKK(Ac)] as fluorogenic substrate assessed as residual activity at 4.57 x 10^-9M (reference value: 101.06%); settings: dose 4.57 10^-9M
T4 sequence (whole entry): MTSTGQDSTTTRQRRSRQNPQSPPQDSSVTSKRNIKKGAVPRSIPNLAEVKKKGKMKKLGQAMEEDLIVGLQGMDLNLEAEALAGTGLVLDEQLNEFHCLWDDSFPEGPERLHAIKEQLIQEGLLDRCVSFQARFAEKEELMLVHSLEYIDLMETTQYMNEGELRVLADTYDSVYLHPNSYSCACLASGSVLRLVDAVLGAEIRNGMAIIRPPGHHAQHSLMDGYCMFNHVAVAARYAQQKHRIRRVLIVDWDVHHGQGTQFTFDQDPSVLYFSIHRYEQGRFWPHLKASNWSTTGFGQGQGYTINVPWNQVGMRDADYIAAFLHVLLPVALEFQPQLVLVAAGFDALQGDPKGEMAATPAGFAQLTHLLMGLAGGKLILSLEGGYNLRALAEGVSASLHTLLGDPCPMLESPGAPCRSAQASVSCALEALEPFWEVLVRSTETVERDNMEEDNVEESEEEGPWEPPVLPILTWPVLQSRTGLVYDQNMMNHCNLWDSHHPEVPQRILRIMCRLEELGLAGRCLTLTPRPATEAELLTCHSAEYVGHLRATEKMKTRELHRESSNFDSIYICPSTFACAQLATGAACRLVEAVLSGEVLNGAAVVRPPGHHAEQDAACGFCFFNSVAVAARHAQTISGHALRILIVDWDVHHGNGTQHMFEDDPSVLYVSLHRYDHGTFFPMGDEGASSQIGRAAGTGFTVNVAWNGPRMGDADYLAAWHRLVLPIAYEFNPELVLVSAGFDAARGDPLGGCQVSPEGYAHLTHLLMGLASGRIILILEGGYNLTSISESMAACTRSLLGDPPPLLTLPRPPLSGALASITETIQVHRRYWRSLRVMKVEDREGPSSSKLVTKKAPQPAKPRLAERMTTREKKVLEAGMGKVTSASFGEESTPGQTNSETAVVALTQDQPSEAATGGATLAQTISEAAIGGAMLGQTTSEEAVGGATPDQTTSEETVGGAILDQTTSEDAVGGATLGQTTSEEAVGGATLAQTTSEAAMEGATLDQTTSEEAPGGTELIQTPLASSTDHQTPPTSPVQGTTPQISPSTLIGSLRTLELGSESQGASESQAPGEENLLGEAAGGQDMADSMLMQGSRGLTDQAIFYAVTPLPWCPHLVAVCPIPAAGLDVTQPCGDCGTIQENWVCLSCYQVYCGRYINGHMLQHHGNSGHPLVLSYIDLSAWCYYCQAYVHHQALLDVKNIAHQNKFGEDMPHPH

[11] = molecular target: Histone deacetylase 9 (Homo sapiens) (UniProt Q9UKV0); assay: Inhibition of HDAC9 (unknown origin) assessed as residual activity at 1.52 x 10^-9M (reference value: 97.55%); settings: dose 1.52 10^-9M
Histone deacetylase 1 [12] = molecular target: T2, Histone deacetylase 1; assay: Inhibition of HDAC1 (unknown origin) using p53 residues 379 to 382 [RHKK(Ac)] as fluorogenic substrate assessed as residual activity at 3.33 x 10^-6M (reference value: 98.06%); settings: dose 3.33 10^-6M

Histone deacetylase 5 (Homo sapiens), sequence (Q9UQL6 whole entry): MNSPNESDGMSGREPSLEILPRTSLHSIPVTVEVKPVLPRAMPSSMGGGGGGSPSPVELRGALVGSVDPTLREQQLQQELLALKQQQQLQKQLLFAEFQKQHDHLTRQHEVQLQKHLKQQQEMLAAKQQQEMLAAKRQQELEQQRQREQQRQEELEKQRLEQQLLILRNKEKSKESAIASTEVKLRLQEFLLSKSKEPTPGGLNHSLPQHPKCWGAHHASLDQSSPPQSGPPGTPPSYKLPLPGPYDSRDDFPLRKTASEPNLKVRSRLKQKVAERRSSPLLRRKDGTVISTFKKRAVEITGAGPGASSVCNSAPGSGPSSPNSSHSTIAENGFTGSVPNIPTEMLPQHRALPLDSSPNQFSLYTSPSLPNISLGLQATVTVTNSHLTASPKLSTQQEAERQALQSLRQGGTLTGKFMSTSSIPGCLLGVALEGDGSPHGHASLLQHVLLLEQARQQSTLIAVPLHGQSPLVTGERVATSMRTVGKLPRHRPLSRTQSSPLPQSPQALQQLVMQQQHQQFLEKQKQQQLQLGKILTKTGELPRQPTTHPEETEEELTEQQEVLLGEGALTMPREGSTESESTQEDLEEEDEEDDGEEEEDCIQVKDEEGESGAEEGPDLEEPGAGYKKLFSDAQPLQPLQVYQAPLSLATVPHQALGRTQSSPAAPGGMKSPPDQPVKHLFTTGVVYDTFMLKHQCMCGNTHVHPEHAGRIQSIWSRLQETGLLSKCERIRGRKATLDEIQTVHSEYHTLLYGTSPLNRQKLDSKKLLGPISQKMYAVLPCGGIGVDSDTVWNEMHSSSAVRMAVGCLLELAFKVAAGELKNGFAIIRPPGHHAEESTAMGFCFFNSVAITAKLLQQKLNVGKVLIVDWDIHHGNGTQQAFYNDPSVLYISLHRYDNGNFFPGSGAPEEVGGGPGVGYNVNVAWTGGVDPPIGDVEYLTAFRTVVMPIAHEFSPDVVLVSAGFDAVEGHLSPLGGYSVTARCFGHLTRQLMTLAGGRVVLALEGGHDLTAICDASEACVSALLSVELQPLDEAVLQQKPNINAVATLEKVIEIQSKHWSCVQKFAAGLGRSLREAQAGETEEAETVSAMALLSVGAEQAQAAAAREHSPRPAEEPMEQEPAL
T2 sequence (Q13547 whole entry, the tested form may be a part): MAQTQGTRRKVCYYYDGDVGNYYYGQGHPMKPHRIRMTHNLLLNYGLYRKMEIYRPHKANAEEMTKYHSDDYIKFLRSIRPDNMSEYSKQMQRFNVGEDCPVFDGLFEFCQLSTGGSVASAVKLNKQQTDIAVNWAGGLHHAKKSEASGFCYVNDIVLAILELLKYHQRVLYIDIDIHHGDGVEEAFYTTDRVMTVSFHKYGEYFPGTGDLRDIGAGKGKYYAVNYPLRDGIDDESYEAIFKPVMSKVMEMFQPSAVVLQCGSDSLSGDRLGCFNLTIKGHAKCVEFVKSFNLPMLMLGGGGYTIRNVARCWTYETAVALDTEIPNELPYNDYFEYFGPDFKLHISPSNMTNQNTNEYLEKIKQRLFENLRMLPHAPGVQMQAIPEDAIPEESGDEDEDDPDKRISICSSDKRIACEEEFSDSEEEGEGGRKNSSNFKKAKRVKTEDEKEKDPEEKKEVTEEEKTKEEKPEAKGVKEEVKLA
T3 sequence (O15379 whole entry, the tested form may be a part): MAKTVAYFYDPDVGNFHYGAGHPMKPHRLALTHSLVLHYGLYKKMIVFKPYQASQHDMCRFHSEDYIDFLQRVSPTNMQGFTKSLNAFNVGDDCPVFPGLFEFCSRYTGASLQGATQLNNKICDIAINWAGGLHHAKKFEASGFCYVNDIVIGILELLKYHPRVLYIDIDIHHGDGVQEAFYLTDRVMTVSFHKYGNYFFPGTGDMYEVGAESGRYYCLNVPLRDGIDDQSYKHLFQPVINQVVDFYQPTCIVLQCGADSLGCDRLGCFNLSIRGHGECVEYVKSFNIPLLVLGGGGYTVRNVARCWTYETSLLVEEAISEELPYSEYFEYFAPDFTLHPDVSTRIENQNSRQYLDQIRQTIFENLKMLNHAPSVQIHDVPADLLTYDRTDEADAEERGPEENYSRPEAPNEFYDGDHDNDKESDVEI
Histone deacetylase 9 (Homo sapiens), sequence (Q9UKV0 whole entry, the tested form may be a part): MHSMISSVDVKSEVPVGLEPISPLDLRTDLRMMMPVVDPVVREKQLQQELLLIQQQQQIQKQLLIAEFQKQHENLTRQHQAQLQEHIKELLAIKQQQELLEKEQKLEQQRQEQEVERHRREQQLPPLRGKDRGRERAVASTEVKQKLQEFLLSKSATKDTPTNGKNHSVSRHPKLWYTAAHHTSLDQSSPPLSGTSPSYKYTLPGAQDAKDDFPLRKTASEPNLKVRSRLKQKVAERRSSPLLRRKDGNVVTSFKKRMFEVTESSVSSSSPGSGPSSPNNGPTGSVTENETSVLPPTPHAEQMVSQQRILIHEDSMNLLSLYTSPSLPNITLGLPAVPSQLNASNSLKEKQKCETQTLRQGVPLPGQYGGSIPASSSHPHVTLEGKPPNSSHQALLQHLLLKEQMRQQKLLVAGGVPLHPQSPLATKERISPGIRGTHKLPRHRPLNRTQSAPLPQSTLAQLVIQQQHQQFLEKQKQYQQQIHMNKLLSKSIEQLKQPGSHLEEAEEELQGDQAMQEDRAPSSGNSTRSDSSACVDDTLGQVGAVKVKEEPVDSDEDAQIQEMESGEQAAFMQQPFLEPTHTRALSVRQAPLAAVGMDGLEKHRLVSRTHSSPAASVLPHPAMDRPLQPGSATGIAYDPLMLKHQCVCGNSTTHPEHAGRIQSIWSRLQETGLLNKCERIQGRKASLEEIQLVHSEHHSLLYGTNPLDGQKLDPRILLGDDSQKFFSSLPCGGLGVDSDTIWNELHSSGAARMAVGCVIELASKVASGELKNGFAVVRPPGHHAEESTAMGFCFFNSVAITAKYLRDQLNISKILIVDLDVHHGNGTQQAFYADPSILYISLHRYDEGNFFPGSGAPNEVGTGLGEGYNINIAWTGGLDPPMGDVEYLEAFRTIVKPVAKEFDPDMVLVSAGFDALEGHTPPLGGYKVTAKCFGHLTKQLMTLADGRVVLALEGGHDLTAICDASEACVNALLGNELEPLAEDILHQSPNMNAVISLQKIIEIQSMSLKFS
Histone deacetylase 2, sequence (Q92769 whole entry): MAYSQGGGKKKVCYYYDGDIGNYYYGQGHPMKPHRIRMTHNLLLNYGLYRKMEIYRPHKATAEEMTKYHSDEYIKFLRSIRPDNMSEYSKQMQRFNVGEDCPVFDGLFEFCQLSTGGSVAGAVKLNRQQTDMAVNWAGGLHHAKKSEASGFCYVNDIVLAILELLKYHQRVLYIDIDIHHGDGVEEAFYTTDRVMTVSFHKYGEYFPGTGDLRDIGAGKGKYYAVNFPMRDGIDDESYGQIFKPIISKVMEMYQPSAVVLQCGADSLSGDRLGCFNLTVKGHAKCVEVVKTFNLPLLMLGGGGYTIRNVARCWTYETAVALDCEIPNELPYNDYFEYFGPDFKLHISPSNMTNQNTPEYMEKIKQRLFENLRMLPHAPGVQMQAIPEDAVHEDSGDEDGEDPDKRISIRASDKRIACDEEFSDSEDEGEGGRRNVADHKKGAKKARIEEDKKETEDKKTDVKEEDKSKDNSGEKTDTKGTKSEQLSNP

Activity (Histone deacetylase 2): 89.2%
Activity [1]: 98.8%
Activity [3]: 89.6%
Activity [4]: 82.1%
pIC50 (K562): 5.92
Activity (Histone deacetylase 1 [5]): 31.3%
Activity [6]: 84%
Activity (Histone deacetylase 3 [8]): 110%
Activity (Histone deacetylase 3 [9]): 107%
Activity [10]: 103%
Activity [11]: 97.8%
Activity (Histone deacetylase 1 [12]): 6.73%
Compound: NC(=O)c1cccc2[nH]c(-c3ccc(NCc4ccc(C(=O)Nc5ccccc5N)cc4)cc3)nc12
Activity (HL-60 [2]): Active
Activity (HL-60 [7]): Dose-Dependent Effect
